We go through ten compounds from ChEMBL document CHEMBL1152396, “Cardenolides from Pergularia tomentosa display cytotoxic activity resulting from their potent inhibition of Na+/K+-ATPase” (J Nat Prod, 2009).

The nature of assay [1]: Antiproliferative activity against human U373 cells after 72 hrs by MTT assay. Type of assay: functional, cell-based, U-373MG ATCC. The settings on record: U373 MG. (Formazan colour is commonly taken as a measure of viable cells.)
Assay [2] deals with U-373MG ATCC. Briefly: Induction of human U373 cell growth delay assessed as morphological changes at 400 nM after 3 days by video microscopy. Type of assay: functional, cell-based.
The subject of the next assay is LoVo. Briefly: Antiproliferative activity against human LoVo cells after 72 hrs by MTT assay. The class given is functional, cell-based.
Assay [3] is described as follows: Inhibition of pig cerebral cortex Na+/K+-ATPase by colorimetric microplate-based assay. The class given is tissue-based, Sus scrofa.
The next assay deals with PC-3. Description: Antiproliferative activity against human PC3 cells after 72 hrs by MTT assay. The class given is functional, cell-based. The settings on record: PC-3, 72 h.
The subject of assay [4] is U-373MG ATCC. Briefly: Induction of human U373 cell death assessed as morphological changes at 400 nM after 3 days by video microscopy. Type of assay: functional, cell-based.
The subject of assay [5] is A549. Briefly: Induction of human A549 cell growth delay assessed as morphological changes at 200 nM after 3 days by video microscopy. Type of assay: functional, cell-based.
In assay [6] the test system is A549. Briefly: Antiproliferative activity against human A549 cells after 72 hrs by MTT assay. The settings on record: A549, 72 h. Type of assay: functional, cell-based.
Another assay deals with MCF7. Description: Antiproliferative activity against human MCF7 cells after 72 hrs by MTT assay. The settings on record: MCF7, 72 h. The class given is functional, cell-based.
For a further assay, the system named is BXPC-3. Description: Antiproliferative activity against human BxPC3 cells after 72 hrs by MTT assay. The class given is functional, cell-based. The settings on record: BXPC-3, 72 h.
Assay [7] concerns A549. Briefly: Induction of human A549 cell death assessed as morphological changes at 200 nM after 3 days by video microscopy. Type of assay: functional, cell-based.
Assay [8] deals with U-373MG ATCC. Briefly: Induction of human U373 cell death assessed as morphological changes at 3.4 uM after 3 days by video microscopy. Type of assay: functional, cell-based.
In assay [9] the test system is A549. Description: Induction of human A549 cell growth delay assessed as morphological changes at 800 nM after 3 days by video microscopy. The class given is functional, cell-based.
Assay [10] deals with U-373MG ATCC. Briefly: Induction of human U373 cell growth delay assessed as morphological changes at 3.4 uM after 3 days by video microscopy. The class given is functional, cell-based.
Assay [11] relates to A549. Briefly: Induction of human A549 cell death assessed as morphological changes at 800 nM after 3 days by video microscopy. The class given is functional, cell-based.
The subject of assay [12] is A549. Description: Induction of human A549 cell death assessed as morphological changes at 80 nM after 3 days by video microscopy. The class given is functional, cell-based.
For assay [13], the system named is A549. Description: Induction of human A549 cell growth delay assessed as morphological changes at 80 nM after 3 days by video microscopy. Type of assay: functional, cell-based.
For the next assay, the species on record is Sus scrofa. Briefly: Inhibition of pig cerebral cortex Na+/K+ ATPase at 1 mM by colorimetric microplate-based assay. Type of assay: tissue-based.

SMILES strings stand for the structures. Active and inactive are the calls of the source. The calls are words filed in the database; no cut-off is given here.

With `C[C@@H]1C[C@@H](O[C@H]2O[C@H](CO)[C@@H](O)[C@H](O)[C@H]2O)[C@]2(O)O[C@@H]3C[C@@]4(C=O)[C@@H](CC[C@@H]5[C@@H]4CC[C@]4(C)[C@@H](C6=CC(=O)OC6)CC[C@]54O)C[C@H]3O[C@@H]2O1`, the half-inhibitory concentration (IC50) was 400 nM in assay [1]; 400 nM in the assay on LoVo; 500 nM in assay [3]; 200 nM in the assay with PC-3; 200 nM in the assay with A549 [6]; 300 nM in the assay on MCF7. The compound also registered an IC50 in the assay on BXPC-3 of 500 nM. For the same compound, the outcome in the assay with U-373MG ATCC [2], with U-373MG ATCC [4], in the assay with A549 [5] and in the assay on A549 [7] was Active.

`C[C@@H]1CC2(NC(=O)CS2)[C@]2(O)O[C@@H]3C[C@@]4(CO)[C@@H](CC[C@@H]5[C@@H]4CC[C@]4(C)[C@@H](C6=CC(=O)OC6)CC[C@]54O)C[C@H]3O[C@@H]2O1` (stereo not given in full) came in with an IC50 in the assay on A549 [6] of 8 nM.

Take `C[C@@H]1C[C@@H](O)[C@]2(O)O[C@@H]3C[C@@]4(C=O)[C@@H](CC[C@@H]5[C@@H]4CC[C@]4(C)[C@@H](C6=CC(=O)OC6)[C@H](O)C[C@]54O)C[C@H]3O[C@@H]2O1`: the IC50 in assay [1] came out at 2600 nM; in the assay with LoVo it was 4400 nM; in [3], 1700 nM; in the assay with PC-3, 1000 nM; in the assay with A549 [6], 400 nM; with MCF7 it was 3800 nM. The compound further returned an IC50 with BXPC-3 of 2300 nM.

`C[C@]12CC[C@H]3[C@@H](CC[C@H]4C[C@H]5O[C@@H]6O[C@H](CO)C[C@@H](O)[C@]6(O)O[C@@H]5C[C@@]43CO)[C@@]1(O)CC[C@@H]2C1=CC(=O)OC1`: the IC50 in assay [1] came out at 100 nM; in the assay on LoVo, 200 nM; in assay [3], 400 nM; in the assay on PC-3, 40 nM; in the assay with A549 [6], 40 nM; in the assay with MCF7, 400 nM. Further, the midpoint of inhibition in the assay on BXPC-3, the IC50, lay at 300 nM.

In the case of `CC(=O)O[C@@H]1C[C@]2(O)[C@@H]3CC[C@H]4C[C@H]5O[C@@H]6O[C@H](CO)C[C@@H](O)[C@]6(O)O[C@@H]5C[C@]4(C=O)[C@H]3CC[C@]2(C)[C@H]1C1=CC(=O)OC1`, the outcome with U-373MG ATCC [8], in the assay with A549 [9], with U-373MG ATCC [10] and in the assay with A549 [11] was Active. Also, the IC50 worked out at 3400 nM in assay [1]; 6400 nM in the assay on LoVo; 1200 nM in assay [3]; 1200 nM with PC-3; 800 nM with A549 [6]; 4100 nM in the assay on MCF7. In the assay on BXPC-3, this compound registered an IC50 of 4400 nM.

For the compound `C[C@]12[C@H](O)C[C@H]3[C@@H](CC[C@H]4C[C@H]5O[C@@H]6O[C@H](CO)C[C@@H](O)[C@]6(O)O[C@@H]5C[C@@]43CO)[C@@]1(O)CC[C@@H]2C1=CC(=O)OC1` [GHALAKINOSIDE], the IC50 in [1] was 400 nM; in the assay on LoVo, 300 nM; in [3], 300 nM; in the assay with PC-3 it was 80 nM; in the assay on A549 [6] it was 80 nM; in the assay on MCF7, 300 nM. This compound also had an IC50 with BXPC-3 of 300 nM. For the same compound, the outcome in the assay on U-373MG ATCC [2], in the assay with U-373MG ATCC [4], in the assay with A549 [12] and in the assay with A549 [13] was Active.

The compound `C[C@@H]1O[C@@H](O[C@H]2C[C@@H](O)[C@]3(CO)[C@H]4[C@H](O)C[C@]5(C)[C@@H](C6=CC(=O)OC6)CC[C@]5(O)[C@@H]4CC[C@]3(O)C2)[C@H](O)[C@H](O)[C@H]1O` yielded an inhibition in the assay filed under Sus scrofa of 100%.

For `C[C@@H]1C[C@@H](O)[C@]2(O)O[C@@H]3C[C@@]4(CO)[C@@H](CC[C@@H]5[C@@H]4C[C@@H](O)[C@]4(C)[C@@H](C6=CC(=O)OC6)CC[C@]54O)C[C@H]3O[C@@H]2O1`, the IC50 in assay [1] was found to be 400 nM; in the assay on LoVo, 300 nM; in assay [3], 700 nM; in the assay on PC-3, 50 nM; with A549 [6] it was 50 nM; in the assay with MCF7, 300 nM. The same compound had an IC50 in the assay with BXPC-3 of 300 nM.

As to `C[C@]12CC[C@H]3[C@@H](CC[C@H]4C[C@H]5O[C@@H]6O[C@H](CO)C[C@@H](O)[C@]6(O)O[C@@H]5C[C@@]43C=O)[C@@]1(O)CC[C@@H]2C1=CC(=O)OC1`, the IC50 turned out to be 400 nM in assay [1]; 900 nM in the assay with LoVo; 500 nM in [3]; 300 nM in the assay with PC-3; 80 nM in the assay on A549 [6]; 500 nM with MCF7. This compound also displayed an IC50 in the assay on BXPC-3 of 600 nM.

Turning to `C[C@@H]1C[C@@H](O)[C@]2(O)O[C@@H]3C[C@@]4(C=O)[C@@H](CC[C@@H]5[C@@H]4CC[C@]4(C)[C@@H](C6=CC(=O)OC6)CC[C@]54O)C[C@H]3O[C@@H]2O1` [CALACTIN], the IC50 is 200 nM in assay [1]; 50 nM in the assay on LoVo; 400 nM in assay [3]; 20 nM in the assay on PC-3; 20 nM with A549 [6]; 40 nM in the assay with MCF7. In the assay on BXPC-3, this compound registered an IC50 of 80 nM.

For orientation: IC50 means the point on the concentration scale where inhibition reaches its midpoint. Low values mean greater potency, high ones weaker potency. What is called inhibition is the share of the control response that was lost under treatment. Low values mean a weak effect, high ones a strong effect.
